One block for each compound: values may come before it.
Target: T1, KRas-G12D (Homo sapiens, UniProt P01116, G12D)
T1 construct: insert the HiBiT tag onto the N-terminus of one or more of the endogenous KRas alleles; host or cells: AsPC-1 HiBiT-KRasG12D knock-in clone (one tagged allele, two untagged KRasG12D alleles)
Test: HiBiT Degradation Assay (G12D), AsPC-1 HiBiT-KRasG12D cells, 24 hr
Type: cell-based
Conditions: for Dmax: ASPC1, AsPC-1 cells, maximum degradation observed; for DC50: AsPC-1 cells
Procedure, shortened: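 AsPC-1 cells with CRISPR N-terminal HiBiT knock-in on one endogenous KRasG12D allele, treated 24 hr at 37° C with compound titrations in 0.5% DMSO. Lytic HiBiT luminescence normalized to DMSO, fitted to a 4-parameter model for DC50 and Dmax. Parallel alamar blue (4 hr) checked viability.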

T1 sequence (P01116 1-188 isoform P01116-2 G12D): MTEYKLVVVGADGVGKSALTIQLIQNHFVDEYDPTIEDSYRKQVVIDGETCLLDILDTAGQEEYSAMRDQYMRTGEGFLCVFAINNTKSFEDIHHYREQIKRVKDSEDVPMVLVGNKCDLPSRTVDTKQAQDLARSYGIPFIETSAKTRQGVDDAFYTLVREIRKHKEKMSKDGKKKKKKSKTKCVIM

Compound: C#Cc1c(F)ccc2cc(O)cc(-c3ncc4c(N5CC6CCC(C5)N6)nc(OCCN5CCC6(CC5)CCN(CC5CCN(c7ccc8c(c7F)n(C(C)C)c(=O)n8C7CCC(=O)NC7=O)CC5)CC6)nc4c3F)c12 (stereo not shown) [Compound 203, 3-[5-[4-[[9-[2-[4-(3,8-diazabicyclo[3.2.1]octan-3-yl)-7-(8-ethynyl-7-fluoro-3-hydroxy-1-naphthyl)-8-fluoro-pyrido[4,3-d]pyrimidin-2-yl]oxyethyl]-3,9-diazaspiro[5.5]undecan-3-yl]methyl]-1-piperidyl]-4-fluoro-3-isopropyl-2-oxo-benzimidazol-1-yl]piperidine-2,6-dione]
Dmax: > 70%
DC50: < 5.1 µM

Compound: C#Cc1c(F)ccc2cc(O)cc(-c3ncc4c(N5CC6CCC(C5)N6)nc(OC[C@]56CCCN5[C@H](CN5CCN(CC7CCN(c8ccc9c(c8)n(C)c(=O)n9C8CCC(=O)NC8=O)CC7)CC5)CC6)nc4c3F)c12 (stereo partly drawn) [Compound 204, 3-[5-[4-[[4-[[(3S,8R)-8-[[4-(3,8-diazabicyclo[3.2.1]octan-3-yl)-7-(8-ethynyl-7-fluoro-3-hydroxy-1-naphthyl)-8-fluoro-pyrido[4,3-d]pyrimidin-2-yl]oxymethyl]-1,2,3,5,6,7-hexahydropyrrolizin-3-yl]methyl]piperazin-1-yl]methyl]-1-piperidyl]-3-methyl-2-oxo-benzimidazol-1-yl]piperidine-2,6-dione]
Dmax: > 70%
DC50: < 5.1 µM

Compound: CCc1c(F)ccc2cc(O)cc(-c3ncc4c(N5CC6CCC(C5)N6)nc(OCCN5CCC(CC6CCN(CC7CCN(c8ccc9c(c8)n(C)c(=O)n9C8CCC(=O)NC8=O)CC7)CC6)CC5)nc4c3F)c12 (stereo not shown) [Compound 205, 3-{5-[4-({4-[(1-{2-[(4-{3,8-diazabicyclo[3.2.1]octan-3-yl}-7-(8-ethyl-7-fluoro-3-hydroxynaphthalen-1-yl)-8-fluoropyrido[4,3-d]pyrimidin-2-yl)oxy]ethyl}piperidin-4-yl)methyl]piperidin-1-yl}methyl)piperidin-1-yl]-3-methyl-2-oxo-2,3-dihydro-1H-1,3-benzodiazol-1-yl}piperidine-2,6-dione]
Dmax: > 70%
DC50: < 5.1 µM

Compound: C#Cc1c(F)ccc2cc(O)cc(-c3ncc4c(N5CC6CCC(C5)N6)nc(OCCN5CCC(CC6CCN(CC7CCN(c8ccc9c(c8F)n(C)c(=O)n9C8CCC(=O)NC8=O)CC7)CC6)CC5)nc4c3F)c12 (stereo not shown) [Compound 206, 3-{5-[4-({4-[(1-{2-[(4-{3,8-diazabicyclo[3.2.1]octan-3-yl}-7-(8-ethynyl-7-fluoro-3-hydroxynaphthalen-1-yl)-8-fluoropyrido[4,3-d]pyrimidin-2-yl)oxy]ethyl}piperidin-4-yl)methyl]piperidin-1-yl}methyl)piperidin-1-yl]-4-fluoro-3-methyl-2-oxo-2,3-dihydro-1H-1,3-benzodiazol-1-yl}piperidine-2,6-dione]
Dmax: > 70%
DC50: < 5.1 µM

Compound: CCc1c(F)ccc2cc(O)cc(-c3ncc4c(N5CC6CCC(C5)N6)nc(OC[C@@H]5C[C@@H](OC6CCN(CC7CCN(c8ccc9c(c8)n(C)c(=O)n9C8CCC(=O)NC8=O)CC7)CC6)CN5C)nc4c3F)c12 (stereo partly drawn) [Compound 207, 3-(5-{4-[(4-{[(3R,5S)-5-{[(4-{3,8-diazabicyclo[3.2.1]octan-3-yl}-7-(8-ethyl-7-fluoro-3-hydroxynaphthalen-1-yl)-8-fluoropyrido[4,3-d]pyrimidin-2-yl)oxy]methyl}-1-methylpyrrolidin-3-yl]oxy}piperidin-1-yl)methyl]piperidin-1-yl}-3-methyl-2-oxo-2,3-dihydro-1H-1,3-benzodiazol-1-yl)piperidine-2,6-dione]
Dmax: > 70%
DC50: < 5.1 µM

Compound: C#Cc1c(F)ccc2cc(O)cc(-c3ncc4c(N5CC6CCC(C5)N6)nc(OC[C@]56CCCN5[C@H](CN5CCN(CC7CCN(c8ccc9c(c8)n(C(C)C)c(=O)n9C8CCC(=O)NC8=O)CC7)CC5)CC6)nc4c3F)c12 (stereo partly drawn) [Compound 208, 3-[5-[4-[[4-[[(3S,8R)-8-[[4-(3,8-diazabicyclo[3.2.1]octan-3-yl)-7-(8-ethynyl-7-fluoro-3-hydroxy-1-naphthyl)-8-fluoro-pyrido[4,3-d]pyrimidin-2-yl]oxymethyl]-1,2,3,5,6,7-hexahydropyrrolizin-3-yl]methyl]piperazin-1-yl]methyl]-1-piperidyl]-3-isopropyl-2-oxo-benzimidazol-1-yl]piperidine-2,6-dione]
Dmax: > 70%
DC50: < 5.1 µM

Compound: CCc1c(F)ccc2cc(O)cc(-c3ncc4c(N5CC6CCC(C5)N6)nc(OC[C@@H]5C[C@@H](OC6CCN(CC7CCN(c8ccc9c(c8)n(C(C)C)c(=O)n9C8CCC(=O)NC8=O)CC7)CC6)CN5C)nc4c3F)c12 (stereo partly drawn) [Compound 209, 3-(5-{4-[(4-{[(3R,5S)-5-{[(4-{3,8-diazabicyclo[3.2.1]octan-3-yl}-7-(8-ethyl-7-fluoro-3-hydroxynaphthalen-1-yl)-8-fluoropyrido[4,3-d]pyrimidin-2-yl)oxy]methyl}-1-methylpyrrolidin-3-yl]oxy}piperidin-1-yl)methyl]piperidin-1-yl}-2-oxo-3-(propan-2-yl)-2,3-dihydro-1H-1,3-benzodiazol-1-yl)piperidine-2,6-dione]
Dmax: > 70%
DC50: < 5.1 µM

Compound: C#Cc1c(F)ccc2cc(O)cc(-c3ncc4c(N5CC6CCC(C5)N6)nc(OCC5(CN6CCC(CC7CCN(c8ccc9c(c8)n(C)c(=O)n9C8CCC(=O)NC8=O)CC7)CC6)CC5)nc4c3F)c12 (stereo not shown) [Compound 210, 3-{5-[4-({1-[(1-{[(4-{3,8-diazabicyclo[3.2.1]octan-3-yl}-7-(8-ethynyl-7-fluoro-3-hydroxynaphthalen-1-yl)-8-fluoropyrido[4,3-d]pyrimidin-2-yl)oxy]methyl}cyclopropyl)methyl]piperidin-4-yl}methyl)piperidin-1-yl]-3-methyl-2-oxo-2,3-dihydro-1H-1,3-benzodiazol-1-yl}piperidine-2,6-dione]
Dmax: > 70%
DC50: < 5.1 µM

DC50: < 5.1 µM
Compound: C#Cc1c(F)ccc2cc(O)cc(-c3ncc4c(N5CC6CCC(C5)N6)nc(OC[C@@H]5CC[C@@H](CN6CCN(CC7CCN(c8ccc9c(c8)n(C(C)C)c(=O)n9C8CCC(=O)NC8=O)CC7)CC6)N5C)nc4c3F)c12 (stereo partly drawn) [Compound 211, 3-(5-{4-[(4-{[(2S,5S)-5-{[(4-{3,8-diazabicyclo[3.2.1]octan-3-yl}-7-(8-ethynyl-7-fluoro-3-hydroxynaphthalen-1-yl)-8-fluoropyrido[4,3-d]pyrimidin-2-yl)oxy]methyl}-1-methylpyrrolidin-2-yl]methyl}piperazin-1-yl)methyl]piperidin-1-yl}-2-oxo-3-(propan-2-yl)-2,3-dihydro-1H-1,3-benzodiazol-1-yl)piperidine-2,6-dione]

Compound: CCc1c(F)ccc2cc(O)cc(-c3ncc4c(N5CC6CCC(C5)N6)nc(OCCN5CCC(CC6CCN(CC7CCN(c8ccc9c(c8)n(C(C)C)c(=O)n9C8CCC(=O)NC8=O)CC7)CC6)CC5)nc4c3F)c12 (stereo not shown) [Compound 212, 3-{5-[4-({4-[(1-{2-[(4-{3,8-diazabicyclo[3.2.1]octan-3-yl}-7-(8-ethyl-7-fluoro-3-hydroxynaphthalen-1-yl)-8-fluoropyrido[4,3-d]pyrimidin-2-yl)oxy]ethyl}piperidin-4-yl)methyl]piperidin-1-yl}methyl)piperidin-1-yl]-2-oxo-3-(propan-2-yl)-2,3-dihydro-1H-1,3-benzodiazol-1-yl}piperidine-2,6-dione]
Dmax: > 70%
DC50: < 5.1 µM

Source: US12448399B2, “Cereblon-based KRAS degrading PROTACs and uses related thereto” (Arvinas Operations, Inc., priority 2023, dated 2025)
